T/C data for 14 molecules are collected here from PubChem BioAssay AID192 (DTP/NCI, 2004).

The structures appear in SMILES notation. Inconclusive results and toxic doses are left out.

The test concerns BDF1 mice, B16 melanoma ip, median survival T/C. Briefly: NCI In Vivo Anticancer Drug Screen. Data for tumor model B16 Melanoma (intraperitoneal) in B6D2F1 (BDF1) mice. Particulars: endpoint: median survival time, higher = longer survival. The method, boiled down: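 Compounds were tested in mice carrying transplantable tumors. Survival or tumor size was recorded, and each value is the treated-group measurement (T) divided by that of the vehicle-treated control group (C).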

Setting [1] is: dose: 50.0 mg/kg/injection, schedule: Q01DX009 (ip), vehicle: Klucel (hydroxypropylcellulose) (HPC).
The mark [2] stands for this setting: dose: 100.0 mg/kg/injection, schedule: Q01DX009 (ip), vehicle: Klucel (hydroxypropylcellulose) (HPC).
Setting [3] is: dose: 12.5 mg/kg/injection, schedule: Q01DX009 (ip), vehicle: saline.
The mark [4] stands for this setting: dose: 25.0 mg/kg/injection, schedule: Q01DX009 (ip), vehicle: saline.

On to `FC(F)(F)C(=Cc1nc2ccccc2s1)C(F)(F)F`, for which the T/C (dose: 6.25 mg/kg/injection, schedule: Q01DX009 (ip), vehicle: Klucel (hydroxypropylcellulose) (HPC)) was 103 % of control and the T/C (dose: 12.5 mg/kg/injection, schedule: Q01DX009 (ip), vehicle: Klucel (hydroxypropylcellulose) (HPC)) was 100 % of control.
`CCCC1OC(=O)C(C)O1` (configuration not stated): the T/C was 92 % of control under setting [1] and 89 % of control under setting [2].
In the case of `CC1C=CC(C(N)C(=O)O)O1` (configuration not stated), the T/C by setting is: under setting [3], 97 % of control; under setting [4], 92 % of control.
In the case of `O=NN(CCF)C(=O)NC1CCC(=O)NC1=O` (configuration not stated), the T/C is 105 % of control (dose: 1.88 mg/kg/injection, schedule: Q01DX001 (ip), vehicle: saline); 120 % of control (dose: 7.5 mg/kg/injection, schedule: Q01DX001 (ip), vehicle: saline); 166 % of control (dose: 15.0 mg/kg/injection, schedule: Q01DX001 (ip), vehicle: saline); 189 % of control (dose: 30.0 mg/kg/injection, schedule: Q01DX001 (ip), vehicle: saline); 209 % of control (dose: 60.0 mg/kg/injection, schedule: Q01DX001 (ip), vehicle: saline).
For the molecule `CCNCCCCCCNCC`, the T/C under setting [3] is 98 % of control and the T/C under setting [4] was 90 % of control.
Regarding `CSCS(=O)C[C@H](CO)NC(=O)/C=C/c1c(C)[nH]c(=O)[nH]c1=O` (some centres not stated), the T/C is 95 % of control (dose: 0.06 mg/kg/injection, schedule: Q01DX009 (ip), vehicle: Klucel (hydroxypropylcellulose) (HPC)); 99 % of control (dose: 0.08 mg/kg/injection, schedule: Q01DX009 (ip), vehicle: water); 105 % of control (dose: 0.15 mg/kg/injection, schedule: Q01DX009 (ip), vehicle: water); 108 % of control (dose: 0.3 mg/kg/injection, schedule: Q01DX009 (ip), vehicle: water); 91 % of control (dose: 0.6 mg/kg/injection, schedule: Q01DX009 (ip), vehicle: water); 94 % of control (dose: 0.98 mg/kg/injection, schedule: Q04DX003 (ip), vehicle: saline). Besides, the T/C by setting is: (dose: 1.4 mg/kg/injection, schedule: Q04DX003 (ip), vehicle: saline) 113 % of control; (dose: 2.0 mg/kg/injection, schedule: Q04DX003 (ip), vehicle: saline) 101 % of control.
With `Cc1cc(C)c(S(=O)(=O)O)cc1C`, the T/C is 115 % of control (dose: 50.0 mg/kg/injection, schedule: Q01DX009 (ip), vehicle: saline); 104 % of control (dose: 100.0 mg/kg/injection, schedule: Q01DX009 (ip), vehicle: saline); 87 % of control (dose: 200.0 mg/kg/injection, schedule: Q01DX009 (ip), vehicle: saline).
With `COc1cc(O)c2c(c1)Cc1cc(C)cc(O)c1C2=O`, the T/C is, setting by setting: (dose: 6.25 mg/kg/injection, schedule: Q01DX009 (ip), vehicle: saline with Tween-80) 93 % of control; (dose: 12.5 mg/kg/injection, schedule: Q01DX009 (ip), vehicle: saline with Tween-80) 98 % of control; (dose: 25.0 mg/kg/injection, schedule: Q01DX009 (ip), vehicle: saline with Tween-80) 98 % of control.
As for `O=C(O)C(O)C(O)C(O)C(O)C(=O)O` (configuration not stated), the T/C is 100 % of control (dose: 300.0 mg/kg/injection, schedule: Q01DX009 (ip), vehicle: Klucel (hydroxypropylcellulose) (HPC)); 93 % of control (dose: 600.0 mg/kg/injection, schedule: Q01DX009 (ip), vehicle: Klucel (hydroxypropylcellulose) (HPC)); 91 % of control (dose: 900.0 mg/kg/injection, schedule: Q01DX009 (ip), vehicle: Klucel (hydroxypropylcellulose) (HPC)).
Consider `c1ccc2c(c1)[As]=c1ccccc1=[As]2` (configuration not stated), for which the T/C reads like this: (dose: 0.75 mg/kg/injection, schedule: Q01DX009 (ip), vehicle: saline with Tween-80) 104 % of control; (dose: 1.5 mg/kg/injection, schedule: Q01DX009 (ip), vehicle: saline with Tween-80) 106 % of control; (dose: 3.0 mg/kg/injection, schedule: Q01DX009 (ip), vehicle: saline with Tween-80) 100 % of control; (dose: 6.0 mg/kg/injection, schedule: Q01DX009 (ip), vehicle: saline with Tween-80) 110 % of control.
On to `Cc1cc(=O)n2c3c(c(N)ccc13)OC2`, for which the T/C is 100 % of control under setting [2] and 92 % of control (dose: 200.0 mg/kg/injection, schedule: Q01DX009 (ip), vehicle: Klucel (hydroxypropylcellulose) (HPC)).
Consider `Cc1ccc(Oc2ccc3cc[n+](C)cc3c2)cc1`, for which the T/C was 98 % of control (dose: 6.25 mg/kg/injection, schedule: Q01DX009 (ip), vehicle: saline); 100 % of control under setting [3]; 86 % of control under setting [4].
Turning to `COc1cc2c(cc1OC)C(C#N)N(C(=O)c1ccccc1)C=C2` (configuration not stated), the T/C (dose: 0.1 mg/kg/injection, schedule: Q01DX009 (ip), vehicle: other) is 102 % of control; the T/C (dose: 0.19 mg/kg/injection, schedule: Q01DX009 (ip), vehicle: other) was 104 % of control; the T/C (dose: 0.38 mg/kg/injection, schedule: Q01DX009 (ip), vehicle: other) was 107 % of control; the T/C (dose: 0.75 mg/kg/injection, schedule: Q01DX009 (ip), vehicle: other) is 111 % of control; the T/C (dose: 1.5 mg/kg/injection, schedule: Q01DX009 (ip), vehicle: other) was 112 % of control.
Regarding `CNC(=O)ON=C1CCC(CC2CCCCC2)CC1` (configuration not stated), the T/C was 93 % of control (dose: 25.0 mg/kg/injection, schedule: Q01DX009 (ip), vehicle: Klucel (hydroxypropylcellulose) (HPC)); 100 % of control under setting [1]; 103 % of control under setting [2].
